This is an account of results in US20260097090A1, “HERBAL MEDICINE EXTRACTS RM01 AND USES AND METHODS OF PREPARATION THEREOF” (RenuMemo Therapeutics LLC, priority 2022, published 2026).

The structures appear in SMILES notation.

This test has as its system patient with severe Alzheimer's disease. In words: Human efficacy case study, Mini Mental State Examination (MMSE) and family report. Type of test: in vivo. To be noted: same patient, long time taking Memantine and Donepezil before RM01; drugs stopped before the visit.

Description: The patient has been taking Memantine and Donepezil to treat their disease. However, both drugs were stopped before the visit.
The patient was evaluated by Mini Mental State Examination (MMSE) during the first visit.
The patient was given the herbal extract composition RM01 twice a day every day, for five weeks. Family member assisted all the process.
The patient was re-evaluated of MMSE after 1 week of treatment. In the meantime, the family member was questioned on patient daily life, regarding sleep, mood, reaction to people, behavioral and psychological symptoms.
The treatment and re-evaluation lasted 5 weeks.

With `COc1cc2c(cc1OC)C(=O)C(CC1CCN(Cc3ccccc3)CC1)C2` (centres unmarked) [Donepezil], the “patient symptom improvement on prior medication, informed by the patient's spouse” value is “not much effect”. Consider `CC12CC3CC(C)(C1)CC(N)(C3)C2` [Memantine], for which the “patient symptom improvement on prior medication, informed by the patient's spouse” value was “not much effect”.
